According to ChEMBL document CHEMBL1201862, “PubChem BioAssay data set” (2004):
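Results reflect a 48-hour exposure of cells in 96-well plates to compound at five concentrations. GI50 marks 50% less growth.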 Activity calls are given as the source filed them. Rule as the data show it: active = GI50 up to about 1.1 µM and inactive = higher.

Experiments:
Experiment in all cases: NCI tumour cell line growth inhibition, 48 h
[1] = system: OVCAR-8
[2] = system: OVCAR-4
[3] = system: Malme-3M
[4] = system: SW-620
[5] = system: SK-OV-3
[6] = system: RXF 393
[7] = system: SF-295
[8] = system: A549
[9] = system: SK-MEL-28
[10] = system: CCRF-CEM
[11] = system: COLO 205
[12] = system: UACC-257
[13] = system: HCT-15
[14] = system: HCT-116
[15] = system: MOLT-4
[16] = system: TK-10
[17] = system: A498

SMILES | GI50 [1] | GI50 [2] | GI50 [3] | GI50 [4] | GI50 [5] | GI50 [6] | GI50 [7] | GI50 [8] | GI50 [9] | GI50 [10] | GI50 [11] | GI50 [12] | GI50 [13] [µM] | GI50 [14] | GI50 [15] | GI50 [16] | GI50 [17]
OC(c1ccccc1)(c1ccccc1)c1ccncc1 | > 100 µM (inactive) | > 100 µM (inactive) | > 100 µM (inactive) | > 100 µM (inactive) | > 100 µM (inactive) | > 100 µM (inactive) | > 100 µM (inactive) | > 100 µM (inactive) | > 100 µM (inactive) | > 100 µM (inactive) | > 100 µM (inactive) | > 100 µM (inactive) | > 100 | > 100 µM (inactive) | > 100 µM (inactive) | > 100 µM (inactive) | 
COc1ccc2c(c1)C(=O)c1ccc(OC)cc1C2=S | > 100 µM (inactive) |  | > 100 µM (inactive) | > 100 µM (inactive) | > 100 µM (inactive) | > 100 µM (inactive) | > 100 µM (inactive) | > 100 µM (inactive) | > 100 µM (inactive) | 25.5 µM (inactive) | > 100 µM (inactive) | > 100 µM (inactive) | > 100 | > 100 µM (inactive) | > 100 µM (inactive) | > 100 µM (inactive) | > 100 µM (inactive)
COC(=O)c1csnn1 | > 100 µM (inactive) |  | > 100 µM (inactive) | > 100 µM (inactive) | > 100 µM (inactive) |  | > 100 µM (inactive) | > 100 µM (inactive) | > 100 µM (inactive) | > 100 µM (inactive) | > 100 µM (inactive) | > 100 µM (inactive) | > 100 | > 100 µM (inactive) | > 100 µM (inactive) | > 100 µM (inactive) | 
COc1ccc(CC2c3c(cc(OC)c(OC)c3OC)CCN2C)cc1OC (stereo unspecified) | > 100 µM (inactive) | 78.7 µM (inactive) | > 100 µM (inactive) | > 100 µM (inactive) |  |  | 63.7 µM (inactive) | > 100 µM (inactive) | > 100 µM (inactive) | > 100 µM (inactive) |  | > 100 µM (inactive) | > 100 | > 100 µM (inactive) | > 100 µM (inactive) | > 100 µM (inactive) | > 100 µM (inactive)
CC(=O)NC(CCCNC(=O)NCCCl)C(=O)NCc1ccccc1 (stereo unspecified) | > 100 µM (inactive) | > 100 µM (inactive) | > 100 µM (inactive) | > 100 µM (inactive) |  | > 100 µM (inactive) | > 100 µM (inactive) | > 100 µM (inactive) | > 100 µM (inactive) | > 100 µM (inactive) | > 100 µM (inactive) | > 100 µM (inactive) | > 100 | > 100 µM (inactive) | > 100 µM (inactive) | > 100 µM (inactive) | 
O=C(O)c1ccccc1Cc1ccco1 | > 100 µM (inactive) | > 100 µM (inactive) | > 100 µM (inactive) | > 100 µM (inactive) | > 100 µM (inactive) | > 100 µM (inactive) | > 100 µM (inactive) | > 100 µM (inactive) |  |  | > 100 µM (inactive) | > 100 µM (inactive) | > 100 | > 100 µM (inactive) | > 100 µM (inactive) | > 100 µM (inactive) | > 100 µM (inactive)
CCc1cccc(C)c1NS(=O)(=O)c1ccccc1 | > 100 µM (inactive) | > 100 µM (inactive) | > 100 µM (inactive) | > 100 µM (inactive) | > 100 µM (inactive) | > 100 µM (inactive) | > 100 µM (inactive) | > 100 µM (inactive) | > 100 µM (inactive) | > 100 µM (inactive) |  | > 100 µM (inactive) | > 100 | > 100 µM (inactive) | > 100 µM (inactive) | > 100 µM (inactive) | > 100 µM (inactive)
C/C(=N\NC(C)(C)C)c1sc(-c2nc(C)c(/C(C)=N/NC(C)(C)C)s2)nc1C | > 100 µM (inactive) | > 100 µM (inactive) | > 100 µM (inactive) | > 100 µM (inactive) | > 100 µM (inactive) | > 100 µM (inactive) | > 100 µM (inactive) | > 100 µM (inactive) | > 100 µM (inactive) | > 100 µM (inactive) | > 100 µM (inactive) | > 100 µM (inactive) | > 100 | > 100 µM (inactive) | > 100 µM (inactive) |  | > 100 µM (inactive)
CC1=C(C(=O)CC(=O)C(=O)Nc2cc(C)ccc2C)Sc2ccccc2N1 | 66.8 µM (inactive) | > 100 µM (inactive) | > 100 µM (inactive) | > 100 µM (inactive) | > 100 µM (inactive) | > 100 µM (inactive) | 32 µM (inactive) | > 100 µM (inactive) | > 100 µM (inactive) | 80.9 µM (inactive) |  | > 100 µM (inactive) | > 100 | > 100 µM (inactive) | 66.7 µM (inactive) | > 100 µM (inactive) | 
CCOP(=O)(OCC)/C(C#N)=C/c1ccc[nH]1 | > 100 µM (inactive) | > 100 µM (inactive) | > 100 µM (inactive) | > 100 µM (inactive) | > 100 µM (inactive) | > 100 µM (inactive) | > 100 µM (inactive) | > 100 µM (inactive) | > 100 µM (inactive) | > 100 µM (inactive) | > 100 µM (inactive) | > 100 µM (inactive) | > 100 | > 100 µM (inactive) | > 100 µM (inactive) | 74.6 µM (inactive) | 
Cc1ccc(SC2C(C)(C)N(C(C)C)P2(=O)N(C(C)C)C(C)C)cc1 (stereo unspecified) | 45.5 µM (inactive) | > 64.9 µM (inactive) | > 32.3 µM (inactive) | > 25.5 µM (inactive) | > 100 µM (inactive) |  | 70.8 µM (inactive) | > 45 µM (inactive) | > 95.7 µM (inactive) | 31.8 µM (inactive) | > 43.7 µM (inactive) | 16.9 µM (inactive) | 62.8 | 26.4 µM (inactive) | 30.2 µM (inactive) | > 100 µM (inactive) | > 100 µM (inactive)
CN(c1ccccc1)C1C(=O)N(c2ccccc2)C1/C=C/c1ccccc1 (stereo unspecified) | > 100 µM (inactive) |  | > 100 µM (inactive) | > 100 µM (inactive) | > 100 µM (inactive) | > 100 µM (inactive) | > 100 µM (inactive) | > 100 µM (inactive) | > 100 µM (inactive) | > 100 µM (inactive) | > 100 µM (inactive) | > 100 µM (inactive) |  | > 100 µM (inactive) | > 100 µM (inactive) | > 100 µM (inactive) | 5.58 µM (inactive)
CCOC(C[C@H](O)[C@H]1COC(=S)S1)OCC | > 100 µM (inactive) |  | > 100 µM (inactive) | > 100 µM (inactive) | > 10 µM (inactive) | 4.65 µM (inactive) | > 100 µM (inactive) | > 100 µM (inactive) |  |  | > 100 µM (inactive) | > 100 µM (inactive) | > 100 | > 100 µM (inactive) |  | > 100 µM (inactive) | 
O=C(c1ccccc1)[C@H]1Nc2ccc(Cl)cc2C2c3ccccc3CC21 (stereo partly specified) | 53.8 µM (inactive) | 22.2 µM (inactive) | > 10 µM (inactive) | 50.5 µM (inactive) |  | 10.5 µM (inactive) | 18.5 µM (inactive) | 34.6 µM (inactive) | 32.3 µM (inactive) |  | 41.1 µM (inactive) | 18.5 µM (inactive) | 60 | 26 µM (inactive) | 11.9 µM (inactive) | 57.1 µM (inactive) | 
N#Cc1ccc(/C=N\N2C(=O)c3ccccc3C2=O)cc1 | > 100 µM (inactive) | > 100 µM (inactive) | > 100 µM (inactive) | > 100 µM (inactive) |  | > 100 µM (inactive) | > 100 µM (inactive) | > 100 µM (inactive) | > 100 µM (inactive) | > 100 µM (inactive) |  | > 100 µM (inactive) | > 100 | > 100 µM (inactive) | > 100 µM (inactive) | > 100 µM (inactive) | > 100 µM (inactive)
O=C1C=C(Nc2ccccc2C(=O)CC(=O)C(=O)Nc2ccc(Cl)cc2)c2ccccc2C1=O | 6.59 µM (inactive) | 10.9 µM (inactive) | 11.8 µM (inactive) | 7.11 µM (inactive) | 26.2 µM (inactive) | 11.5 µM (inactive) |  | 14.4 µM (inactive) | 16.7 µM (inactive) | 3.59 µM (inactive) | 17.9 µM (inactive) | 8.83 µM (inactive) | 10.6 | 6.18 µM (inactive) | 5.05 µM (inactive) | > 74.5 µM (inactive) | > 100 µM (inactive)
COc1cc2ccnc3c(=C(SC)SC)c(=O)c(c1OC)c23 | 10.6 µM (inactive) | 15.8 µM (inactive) | 11.4 µM (inactive) | 15.7 µM (inactive) | > 100 µM (inactive) | 13 µM (inactive) | 58.1 µM (inactive) | 42.3 µM (inactive) | 13 µM (inactive) | 2.86 µM (inactive) | 3.37 µM (inactive) | 13.6 µM (inactive) | 11.9 |  | 4.6 µM (inactive) | 14 µM (inactive) | 
CN1C/C(=C\c2ccco2)c2nc(N)nc(-c3ccco3)c2C1 | 75.2 µM (inactive) |  | > 100 µM (inactive) | > 100 µM (inactive) | > 100 µM (inactive) | > 100 µM (inactive) | > 100 µM (inactive) | > 100 µM (inactive) | > 100 µM (inactive) | 74.1 µM (inactive) | > 100 µM (inactive) | > 100 µM (inactive) | > 100 | > 100 µM (inactive) | 48.9 µM (inactive) | > 100 µM (inactive) | > 100 µM (inactive)
C1=CC=C2NCCCCCC/N=C3\C=CC=CC=C3NCCc3cccc(c3)CC/N=C/2C=C1 | 14.8 µM (inactive) | 12.7 µM (inactive) | 35.3 µM (inactive) | 4.67 µM (inactive) | 25.5 µM (inactive) | 13.4 µM (inactive) | 16.9 µM (inactive) | 35.2 µM (inactive) |  | 15.9 µM (inactive) | 14.3 µM (inactive) | 22.8 µM (inactive) | 15.8 | 6.27 µM (inactive) | 7.78 µM (inactive) |  | 
